This is an account of results in PMC10909431 (Journal of Peptide Science, 2023).

Assay [1] concerns the target T1, IR‐A (Homo sapiens, UniProt P06213).
T1 construct: for IR‐A in cell membranes of human IM‐9 lymphocytes (ATCC); host or cells: human IM-9 lymphocytes (cell membranes)
The experiment in a line: Receptor-binding: competition with [125I]-monoiodotyrosyl-TyrA14-insulin for IR-A in IM-9 cell membranes. The conditions noted are these: cell membranes of human IM-9 lymphocytes, each curve in duplicate, Kd from at least three binding curves, ± S.D., SD. How it is done:
The binding curve of each analog was determined in duplicate, and the final dissociation constant (K d) was calculated from at least three binding curves.

In assay [2] the target is IR. The conditions noted are these: cited from earlier work. The text has this:
Scientific teams from Novo Nordisk A/S and Antyra, Inc., used the technique of expressing libraries of peptide sequences on the surface of bacteriophage and, by testing their binding affinities, discovered a number of peptides that bound very efficiently to IR while activating or inhibiting it.[19], [20]

Assay [3] concerns insulin effect on plasma glucose. The conditions noted are these: cited from earlier work. The text has this: (§1) Scientific teams from Novo Nordisk A/S and Antyra, Inc., used the technique of expressing libraries of peptide sequences on the surface of bacteriophage and, by testing their binding affinities, discovered a number of peptides that bound very efficiently to IR while activating or inhibiting it.[19], [20] […] One of these peptides was […] or S592, which bound only to bindi ...

Assay [4] relates to insulin‐stimulated lipogenesis in cells. The conditions noted are these: cited from earlier work.
From the text: as §1

The test system of assay [5] is IR. Particulars: cited from earlier work; for agonistic or antagonistic activities: peptides tested separately.

Read-outs that look alike come from different tables or passages of the source. Numbered stars: 1 amine (or outer) side, 2 acyl side, 3 side chain; on linkers, the order of the positions; unused ones are H or OH. Bridge positions count the residues as written; N and C are the ends. Square brackets hold non-standard residues; d marks the D form. Triazole bridges read from a SMILES are 1,4-linked. Ends that are not written are not given here. Peptide text beside a SMILES is read from it. Orn(N3) = [N-]=[N+]=NCCC[C@H](N)C(=O)O; S5 = C=CCCC[C@](C)(N)C(=O)O; X1 = c1c(C[*:2])nnn1CC[*:1]; Pra = C#CC[C@H](N)C(=O)O

T1 sequence (P06213 28-1370 isoform P06213-2 limits assumed): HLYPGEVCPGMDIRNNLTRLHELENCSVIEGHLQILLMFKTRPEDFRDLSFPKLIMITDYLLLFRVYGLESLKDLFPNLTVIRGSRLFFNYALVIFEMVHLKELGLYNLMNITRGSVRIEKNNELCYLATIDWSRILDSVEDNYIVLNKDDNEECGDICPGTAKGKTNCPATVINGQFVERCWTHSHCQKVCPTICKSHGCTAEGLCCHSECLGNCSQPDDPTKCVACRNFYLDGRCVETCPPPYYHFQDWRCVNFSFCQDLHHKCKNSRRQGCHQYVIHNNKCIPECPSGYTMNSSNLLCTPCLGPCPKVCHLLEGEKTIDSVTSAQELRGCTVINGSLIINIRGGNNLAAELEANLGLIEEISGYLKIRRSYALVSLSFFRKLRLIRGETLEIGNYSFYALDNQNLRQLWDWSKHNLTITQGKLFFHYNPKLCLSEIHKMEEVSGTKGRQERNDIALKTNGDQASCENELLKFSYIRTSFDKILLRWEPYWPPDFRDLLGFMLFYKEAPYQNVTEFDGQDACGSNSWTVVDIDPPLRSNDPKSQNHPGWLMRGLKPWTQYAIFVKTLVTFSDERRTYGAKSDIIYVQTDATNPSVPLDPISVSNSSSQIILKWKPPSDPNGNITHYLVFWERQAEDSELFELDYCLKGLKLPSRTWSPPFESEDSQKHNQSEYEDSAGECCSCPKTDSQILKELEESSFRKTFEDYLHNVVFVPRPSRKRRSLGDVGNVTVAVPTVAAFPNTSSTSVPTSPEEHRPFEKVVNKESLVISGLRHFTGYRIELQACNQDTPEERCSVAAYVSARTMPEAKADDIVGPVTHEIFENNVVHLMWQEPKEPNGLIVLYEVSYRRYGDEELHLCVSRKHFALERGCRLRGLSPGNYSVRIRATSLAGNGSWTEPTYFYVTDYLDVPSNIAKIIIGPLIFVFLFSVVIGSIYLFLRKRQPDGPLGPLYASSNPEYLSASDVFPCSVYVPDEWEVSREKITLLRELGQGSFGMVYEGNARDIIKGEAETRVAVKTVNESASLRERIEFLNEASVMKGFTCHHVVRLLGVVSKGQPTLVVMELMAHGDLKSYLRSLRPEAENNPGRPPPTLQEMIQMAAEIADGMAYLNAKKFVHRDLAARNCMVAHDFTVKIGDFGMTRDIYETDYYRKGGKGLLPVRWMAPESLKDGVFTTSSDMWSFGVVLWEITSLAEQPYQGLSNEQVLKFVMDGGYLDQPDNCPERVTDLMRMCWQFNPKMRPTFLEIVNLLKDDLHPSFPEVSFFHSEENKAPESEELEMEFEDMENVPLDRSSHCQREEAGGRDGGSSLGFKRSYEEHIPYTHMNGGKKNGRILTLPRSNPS
T1 sequence (P06213 763-1382 partner limits assumed): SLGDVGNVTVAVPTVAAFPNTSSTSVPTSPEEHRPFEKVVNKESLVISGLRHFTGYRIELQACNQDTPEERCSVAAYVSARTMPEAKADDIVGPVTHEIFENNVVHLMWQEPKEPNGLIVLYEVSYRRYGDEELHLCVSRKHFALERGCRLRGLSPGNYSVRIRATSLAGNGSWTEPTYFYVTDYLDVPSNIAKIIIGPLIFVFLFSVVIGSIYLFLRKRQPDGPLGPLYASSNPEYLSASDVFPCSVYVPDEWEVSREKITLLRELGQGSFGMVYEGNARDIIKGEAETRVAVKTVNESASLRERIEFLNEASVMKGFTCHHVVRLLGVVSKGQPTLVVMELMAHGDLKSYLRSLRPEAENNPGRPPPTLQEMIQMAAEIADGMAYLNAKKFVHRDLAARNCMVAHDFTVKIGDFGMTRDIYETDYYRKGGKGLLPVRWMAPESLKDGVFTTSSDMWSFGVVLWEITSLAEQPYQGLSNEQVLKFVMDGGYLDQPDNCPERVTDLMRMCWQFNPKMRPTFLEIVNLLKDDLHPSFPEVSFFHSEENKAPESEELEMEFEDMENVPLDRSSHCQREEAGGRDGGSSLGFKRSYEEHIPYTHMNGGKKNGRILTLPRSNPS

Consider `CC[C@H](C)[C@H](NC(=O)[C@H](CCC(N)=O)NC(=O)[C@H](C)NC(=O)[C@H](Cc1c[nH]c2ccccc12)NC(=O)[C@H](CCC(=O)O)NC(=O)[C@H](CCC(=O)O)NC(=O)[C@H](CCC(=O)O)NC(=O)[C@H](CC(C)C)NC(=O)[C@@H](N)CO)C(=O)N[C@@H](CCC(=O)O)C(=O)N[C@H]1CSSC[C@@H](C(=O)N2CCC[C@H]2C(=O)N[C@@H](CO)C(N)=O)NC(=O)CNC(=O)[C@H](CCCNC(=N)N)NC(=O)CNC(=O)[C@H](Cc2c[nH]c3ccccc23)NC(=O)[C@H](C(C)C)NC(=O)[C@H](CCC(=O)O)NC1=O` [peptide 1] (H-SLEEEWAQIECEVWGRGCPS-NH2; disulfide 11-18), for which the Kd in assay [1] amounted to 3.9 ± 1 nM.
The same measure, in the same setting: the result for `CC[C@H](C)[C@H](NC(=O)[C@H](CCC(N)=O)NC(=O)[C@H](C)NC(=O)[C@H](Cc1c[nH]c2ccccc12)NC(=O)[C@H](CCC(=O)O)NC(=O)[C@H](CCC(=O)O)NC(=O)[C@H](CCC(=O)O)NC(=O)[C@H](CC(C)C)NC(=O)[C@@H](N)CO)C(=O)N[C@@H](CCC(=O)O)C(=O)N[C@@]1(C)CCCC=CCCC[C@@](C)(C(=O)N2CCC[C@H]2C(=O)N[C@@H](CO)C(N)=O)NC(=O)CNC(=O)[C@H](CCCNC(=N)N)NC(=O)CNC(=O)[C@H](Cc2c[nH]c3ccccc23)NC(=O)[C@H](C(C)C)NC(=O)[C@H](CCC(=O)O)NC1=O` [peptide 2] (H-SLEEEWAQIE[S5]EVWGRG[S5]PS-NH2; staple 11-18) reads 49 ± 6 nM; that for `CC[C@H](C)[C@H](NC(=O)[C@H](CCC(N)=O)NC(=O)[C@H](C)NC(=O)[C@H](Cc1c[nH]c2ccccc12)NC(=O)[C@H](CCC(=O)O)NC(=O)[C@H](CCC(=O)O)NC(=O)[C@H](CCC(=O)O)NC(=O)[C@H](CC(C)C)NC(=O)[C@@H](N)CO)C(=O)N[C@@H](CCC(=O)O)C(=O)N[C@H]1CCCn2cc(nn2)C[C@@H](C(=O)N2CCC[C@H]2C(=O)N[C@@H](CO)C(N)=O)NC(=O)CNC(=O)[C@H](CCCNC(=N)N)NC(=O)CNC(=O)[C@H](Cc2c[nH]c3ccccc23)NC(=O)[C@H](C(C)C)NC(=O)[C@H](CCC(=O)O)NC1=O` [peptide 3] (H-SLEEEWAQIE[Orn(N3)]EVWGRG[Pra]PS-NH2; triazole 11-18), 15 ± 3 nM; that for `CC[C@H](C)[C@H](NC(=O)[C@H](CCC(N)=O)NC(=O)[C@H](C)NC(=O)[C@H](Cc1c[nH]c2ccccc12)NC(=O)[C@H](CCC(=O)O)NC(=O)[C@H](CCC(=O)O)NC(=O)[C@H](CCC(=O)O)NC(=O)[C@H](CC(C)C)NC(=O)[C@@H](N)CO)C(=O)N[C@@H](CCC(=O)O)C(=O)N[C@H]1CSCCn2cc(nn2)CSC[C@@H](C(=O)N2CCC[C@H]2C(=O)N[C@@H](CO)C(N)=O)NC(=O)CNC(=O)[C@H](CCCNC(=N)N)NC(=O)CNC(=O)[C@H](Cc2c[nH]c3ccccc23)NC(=O)[C@H](C(C)C)NC(=O)[C@H](CCC(=O)O)NC1=O` [peptide 4] (H-SLEEEWAQIECEVWGRGCPS-NH2; linker 11-18 via X1), 25 ± 7 nM.
`CC[C@H](C)[C@H](NC(=O)[C@H](CCC(N)=O)NC(=O)[C@H](C)NC(=O)[C@H](Cc1c[nH]c2ccccc12)NC(=O)[C@H](CCC(=O)O)NC(=O)[C@H](CCC(=O)O)NC(=O)[C@H](CCC(=O)O)NC(=O)[C@H](CC(C)C)NC(=O)[C@@H](N)CO)C(=O)N[C@@H](CCC(=O)O)C(=O)N[C@H]1CSCCn2cc(nn2)COC[C@@H](C(=O)N2CCC[C@H]2C(=O)N[C@@H](CO)C(N)=O)NC(=O)CNC(=O)[C@H](CCCNC(=N)N)NC(=O)CNC(=O)[C@H](Cc2c[nH]c3ccccc23)NC(=O)[C@H](C(C)C)NC(=O)[C@H](CCC(=O)O)NC1=O` [peptide 5] (H-SLEEEWAQIECEVWGRGSPS-NH2; linker 11-18 via X1) returned a Kd in assay [1] of 75 ± 29 nM.
Consider “#SLEEEWAQIE C EVYGR C PPSES‐amide (disulfide) [IM172N22, peptide representing the Site 2 part of IM459]”, for which the Kd in assay [2] (read-out: binding affinity) is 3.1 nM.
As for “#SLEQEWaKIE C EVYGK C PPKKAyKWFERQLK‐amide (disulfide) [IM459, variant of S519 with several modifications, IR agonist]”, in assay [2], the “ability to activate IR” value is reported as “retains the ability to activate IR (agonist)”.
As to “GSLDESFYDWFERQLGGGSGGSSLEEEWAQIQ C EVWGRG C PSY (disulfide) [S961, Site 1–linker–Site 2 fusion peptide with free C-terminus, IR antagonist]”, the “binding affinities for IR” value in assay [2] is given as “native insulin‐like binding affinities”. In assay [3], the “inhibition of the insulin effect on plasma glucose in mice” value is reported as “fully inhibit”. The “inhibition of insulin‐stimulated lipogenesis in cells” value in assay [4] was “fully inhibit”.
Turning to “GSLDESFYDWFERQLGGGSGGSSLEEEWAQIQ C EVWGRG C PSY‐amide (disulfide) [S661, Site 1–linker–Site 2 fusion peptide with amidated C-terminus, IR antagonist]”, the “binding affinities for IR” value in assay [2] is listed as “native insulin‐like binding affinities”. Further, in assay [3], the “inhibition of the insulin effect on plasma glucose in mice” value is on record as “fully inhibit”. The “inhibition of insulin‐stimulated lipogenesis in cells” value in assay [4] is on record as “fully inhibit”.
Take “GSLDESFYDWFERQLGGGSGGSSLEEEWAQIQSEVWGRGSPSY-NH2 [Cys → Ser in S661, S661 variant with cysteines mutated to serines, without the disulfide bridge]”: the “change of antagonistic activity versus S661” value in assay [5] (inhibition of insulin-stimulated IR phosphorylation in cells) is “eightfold decrease”.
For the molecule GSLDESFYDWFERQLGKK [S371], the “agonistic or antagonistic activities” value in assay [5] is recorded as “did not detect any agonistic or antagonistic activities”.
Turning to “SLEEEWAQ-NH2 [N-terminal segment peptide of the Site 2 mimetics, without the cyclized part]”, the Kd in assay [2] (read-out: binding affinity) was 900 nM.
On to “SLEEEWAQIE C EVWGRG C PSY (disulfide) [S592]”, for which, in assay [2], the “activation of the receptor” value is “does not activate the receptor”. For the same molecule, in assay [2] (read-out: K d for binding to the IR), the Kd is 1.7 nM.
“SLEEEWAQIQSEVWGRGSPSYC [Cys → Ser in S592, Site 2 peptide with Cys-to-Ser mutations produced by Brandt et al]”: the insulin signal remaining in assay [5] (1 nM insulin, peptide at the concentration 100 nM) is 50–60%. For the same molecule, the “agonistic or antagonistic activities” value in assay [5] was “did not detect any agonistic or antagonistic activities”.
With “SLEEEWAQVE C EVYGRG C PSGSLDESFYDWFERQLG (disulfide) [S519, Site 2–Site 1 fusion peptide, IR agonist]”, in assay [2], the “agonism / antagonism of IR” value is “did not show antagonistic effects and instead agonized IR”; the “binding to IR” value is “very high affinity”.
